Numbered stars: 1 amine (or outer) side, 2 acyl side, 3 side chain; on linkers, the order of the positions; unused ones are H or OH. Bridge positions count the residues as written; N and C are the ends. Square brackets hold non-standard residues; d marks the D form. Peptide text beside a SMILES is read from it. hTyr = N[CH](CCc1ccc(O)cc1)C(=O)O; NMeA = CN[CH](C)C(=O)O; CO = O=C([*:1])[*:2]
Columns and labels:
Format in all cases: biochemical
FXa = FXa (Homo sapiens, UniProt P00742); assay: Protease/carboxypeptidase panel: FXa; conditions: for inhibition at 100 µM: read-out: Inh.@100µM in % FXa
Description: Supplement srep32958-s1.docx, table 1: Table S1: Activities of Anabaenopeptins against a panel of proteases/carboxypeptidases. | column: FXa

FVIIa = target: T1, FVIIa (Homo sapiens, UniProt P08709); assay: Protease/carboxypeptidase panel: FVIIa; conditions: read-out: Inh.@100µM in % FVIIa
T1 sequence (P08709 213-466 limits assumed): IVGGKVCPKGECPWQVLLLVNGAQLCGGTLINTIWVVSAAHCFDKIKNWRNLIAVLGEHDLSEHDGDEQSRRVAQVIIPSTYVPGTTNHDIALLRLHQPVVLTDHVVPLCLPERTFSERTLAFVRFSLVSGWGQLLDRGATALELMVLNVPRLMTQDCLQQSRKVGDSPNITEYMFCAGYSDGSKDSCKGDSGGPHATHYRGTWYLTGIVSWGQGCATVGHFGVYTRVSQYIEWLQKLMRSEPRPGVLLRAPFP
T1 sequence (P08709 61-212 partner limits assumed): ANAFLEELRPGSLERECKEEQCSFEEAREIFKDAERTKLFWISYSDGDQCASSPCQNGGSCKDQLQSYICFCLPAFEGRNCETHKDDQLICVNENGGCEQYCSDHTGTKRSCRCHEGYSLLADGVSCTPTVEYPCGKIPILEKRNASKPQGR
Description: Supplement srep32958-s1.docx, table 1: Table S1: Activities of Anabaenopeptins against a panel of proteases/carboxypeptidases. | column: FVIIa

CPN = target: T2, CPN (Homo sapiens, UniProt P15169); assay: Protease/carboxypeptidase panel: CPN; conditions: read-out: IC50 CPN
T2 sequence (P15169 21-458): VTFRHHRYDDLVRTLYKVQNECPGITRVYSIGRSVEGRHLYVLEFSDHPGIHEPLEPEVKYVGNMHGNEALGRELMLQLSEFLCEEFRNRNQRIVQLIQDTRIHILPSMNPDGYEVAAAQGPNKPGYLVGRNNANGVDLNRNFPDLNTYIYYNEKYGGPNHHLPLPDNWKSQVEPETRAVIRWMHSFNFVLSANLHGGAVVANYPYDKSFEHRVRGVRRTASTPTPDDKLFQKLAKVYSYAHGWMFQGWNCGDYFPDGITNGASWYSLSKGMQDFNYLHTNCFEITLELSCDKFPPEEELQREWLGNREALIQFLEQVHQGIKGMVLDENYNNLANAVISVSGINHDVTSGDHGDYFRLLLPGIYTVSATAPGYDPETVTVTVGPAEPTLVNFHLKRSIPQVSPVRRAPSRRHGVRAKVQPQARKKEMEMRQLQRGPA
T2 sequence (P22792 22-545 partner): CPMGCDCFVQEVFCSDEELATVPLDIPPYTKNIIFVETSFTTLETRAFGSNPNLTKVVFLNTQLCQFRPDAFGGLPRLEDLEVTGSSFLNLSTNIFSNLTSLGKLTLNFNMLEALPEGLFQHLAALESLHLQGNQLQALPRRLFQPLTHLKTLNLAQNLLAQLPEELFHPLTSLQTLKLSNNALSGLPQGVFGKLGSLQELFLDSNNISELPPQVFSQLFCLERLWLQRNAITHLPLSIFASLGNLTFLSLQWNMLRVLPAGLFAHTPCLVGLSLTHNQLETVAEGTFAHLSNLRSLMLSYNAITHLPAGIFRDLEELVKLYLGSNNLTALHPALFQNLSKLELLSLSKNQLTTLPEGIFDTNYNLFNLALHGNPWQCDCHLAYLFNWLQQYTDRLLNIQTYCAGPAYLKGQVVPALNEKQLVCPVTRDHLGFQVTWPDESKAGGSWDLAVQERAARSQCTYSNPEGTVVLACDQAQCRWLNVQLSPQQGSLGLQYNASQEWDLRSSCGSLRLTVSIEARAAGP
Description: Supplement srep32958-s1.docx, table 1: Table S1: Activities of Anabaenopeptins against a panel of proteases/carboxypeptidases. | column: CPN

CPA = target: T3, CPA (Homo sapiens, UniProt P15085); assay: Protease/carboxypeptidase panel: CPA
T3 sequence (P15085 111-419): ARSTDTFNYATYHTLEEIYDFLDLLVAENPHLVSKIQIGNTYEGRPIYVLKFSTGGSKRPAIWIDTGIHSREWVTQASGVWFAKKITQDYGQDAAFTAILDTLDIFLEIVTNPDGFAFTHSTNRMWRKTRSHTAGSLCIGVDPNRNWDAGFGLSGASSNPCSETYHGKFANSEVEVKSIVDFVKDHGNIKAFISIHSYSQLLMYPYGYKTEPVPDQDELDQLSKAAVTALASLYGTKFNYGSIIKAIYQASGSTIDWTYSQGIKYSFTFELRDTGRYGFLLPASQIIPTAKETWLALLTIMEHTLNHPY
Description: Supplement srep32958-s1.docx, table 1: Table S1: Activities of Anabaenopeptins against a panel of proteases/carboxypeptidases. | column: CPA

FIIa = FIIa (Homo sapiens, UniProt P00734); assay: Protease/carboxypeptidase panel: FIIa; conditions: read-out: Ki FIIa
Description: Supplement srep32958-s1.docx, table 1: Table S1: Activities of Anabaenopeptins against a panel of proteases/carboxypeptidases. | column: FIIa

FXa, sequence (P00742 235-488 limits assumed): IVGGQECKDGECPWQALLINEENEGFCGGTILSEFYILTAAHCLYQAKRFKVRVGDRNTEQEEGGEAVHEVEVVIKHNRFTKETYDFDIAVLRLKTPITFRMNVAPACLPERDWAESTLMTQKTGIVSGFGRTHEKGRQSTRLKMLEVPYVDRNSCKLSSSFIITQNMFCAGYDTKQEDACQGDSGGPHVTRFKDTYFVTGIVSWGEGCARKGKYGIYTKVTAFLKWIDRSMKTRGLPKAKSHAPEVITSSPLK
FXa, sequence (P00742 41-179 partner limits assumed): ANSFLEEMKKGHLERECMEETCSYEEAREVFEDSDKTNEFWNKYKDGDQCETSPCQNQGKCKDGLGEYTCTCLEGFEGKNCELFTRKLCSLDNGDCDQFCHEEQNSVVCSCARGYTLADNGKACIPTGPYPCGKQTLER

SMILES	inhibition at 100 µM (FXa) [%]	inhibition at 100 µM (FVIIa) [%]	IC50 (CPN) [µM]	IC50 (CPA) [µM]	Ki (FIIa) [µM]	inhibition at 100 µM (CPA; 100 µM, read-out: Inh.@100µM in % CPA) [%]	Ki (FXa) [µM]
CC(C)[C@@H]1NC(=O)[C@H](NC(=O)N[C@@H](CCCNC(=N)N)C(=O)O)CCCCNC(=O)[C@H](Cc2ccccc2)NC(=O)[C@H](C)N(C)C(=O)[C@H](CCc2ccc(O)cc2)NC1=O [Compound 1, Anabaenopeptin B] ({Arg-CO}-[dK]V[hTyr][NMeA]F; lactam 1-C)	22	35	5.4	3.9	1.6	–	–
CC(C)C1NC(=O)C(NC(=O)NC(CCCCN)C(=O)O)CCCCNC(=O)C(Cc2ccccc2)NC(=O)C(C)N(C)C(=O)C(CCc2ccc(O)cc2)NC1=O (centres unmarked) [Compound 2, Anabaenopeptin C] ({Lys-CO}-KV[hTyr][NMeA]F; lactam 1-C; configuration not given here)	42	36	5.7	–	6	31	–
CC[C@H](C)[C@@H]1NC(=O)[C@H](NC(=O)N[C@@H](CCCNC(=N)N)C(=O)O)CCCCNC(=O)[C@H](Cc2ccccc2)NC(=O)[C@H](C)N(C)C(=O)[C@H](CCc2ccc(O)cc2)NC1=O [Compound 3, Anabaenopeptin F] ({Arg-CO}-[dK]I[hTyr][NMeA]F; lactam 1-C)	–	–	2.7	1.1	0.35	–	38

Reference: article PMC5015106 (Scientific Reports, 2016)
